# In patent US20030211545A1, “Treatment of neuropsychiatric disease with protease and neurominidase inhibitors” (priority 2002, published 2003):
# Entries after “also recorded” stand apart in the source; their conditions may differ. Read-outs that look alike come from different tables or passages of the source.
# Experiments:
# [1] = cited from earlier work
# [2] = tested on: N-CAM 180; test: Incubation of human occipital cortex membrane and cytosolic fractions with protease inhibitors, N-CAM immunoblot; format: biochemical
# From the text: Fresh or frozen human brain cortex is dissected free of pia mater layer and any obvious blood vessels on the surface of the cortex. Pulverize the cortex in a sufficient quantity of liquid Nitrogen to a friable state with mortar and pestle, and accurately weigh out replicate samples of pulverized brain sample while keeping all vessels frozen in dry ice. Place the quantity of protease inhibitor or neuraminidase inhibitor in a PBS buffer of final pH 7.4 and maintain buffer on ice. Add the varying concentrations and combinations of protease inhibitors and/or neuraminidase inhibitors to separate pulverized brain in tubes in a final volume to yield a 20% weight of brain tissue/buffer volume. Allow the tubes to adjust to room temperature, and incubate at standard room temperature conditions for varying time points. The end-point of the assay is accomplished by addition of a 2× denaturing reducing sample buffer such as commercially available and previously published, and heat 3 min at 95 degrees C. Proceed to standard SDS-PAGE and immunoblot conditions to determine the breakdown products of parent molecule N-CAM. Use appropriate control incubations for temperature breakdown and buffer breakdown without protease inhibitors and/or neuraminidase inhibitors. The results can be quantitatively assessed by densitometry of immunoblots as previously published which yields a linear response within a loading range of proteins (˜1-100 μg of protein) depending on gel capacity used and concentrations of antibody and detection substrates which are empirically determined with standard methods. […]
# Membrane and cytosolic fractions from human occipital cortex were incubated in the presence of protease inhibitors (10 μM final concentration) for varying lengths of time (typically 2, 4, 8, 16, 32, and 48 hrs at room temperature). An aliquot was analyzed by gel electrophoresis and immunoblotted with N-CAM 3732 antibody. […] The supernatant was labeled “membrane extract.” Protein content of the “cytosolic” and “membrane extract” sample was measured by the micro bicinchoninic acid method (Pierce, Ill.).
# [3] = cited from earlier work; remark: listed apart in the source
# [4] = tested on: N-CAM 180; test: Neuraminidase treatment of cytosolic and membrane brain extracts, N-CAM immunoblot; format: biochemical, human; details: 1.25 U/ml diluted enzyme, 18 hrs at 37° C., FIG. 7A
# Description: Membrane “extracts” and “cytosolic” tissue extracts of human occipital cortex were prepared as described^8 with slight modifications^9. Frozen pulverized occipital cortex ˜50 g was suspended in 1000 ml of cold 0.05M Tris buffered saline (TBS, pH 7.4) with protease inhibitors: antipain (4 μg/ml), pepstatin A (2 μg/ml), aprotinin (2 μg/ml), leupeptin (2 μg/ml), and phenyl methyl sulfonyl fluoride (0.1 μg/ml). The solution was homogenized (Tissumizer; Tekmar, Cincinnati Ohio) for 5×10 sec pulses in a 4° C. ice bath and 30 sec cooling interval between pulses. The homogenate was centrifuged for 30 min at 42,000×g at 4° C. The clear supernatant with visible lipid removed was the “cytosolic” fraction. The pellet was resuspended and washed with cold TBS-protease inhibitor cocktail and re-centrifuged at 42,000×g for 30 min at 4° C. […] The supernatant was labeled “membrane extract.” Protein content of the “cytosolic” and “membrane” sample was measured by the micro bicinchoninic acid method (Pierce, Ill.).
# Neuraminidase treatment of cytosolic and membrane brain extracts was accomplished by using neuraminidase enzyme from Vibrio cholerae (˜2.49 Units/ml, Fluka) in pH 5.5, 0.15M NaCl, 4 mM CaCl2 that was diluted with 50 mM sodium acetate, 4 mM CaCl2 and 0.2 mM EDTA, (pH 5.0; Buffer A) to 1.25 U/ml. […] Samples were analyzed by immunoblot for N-CAM with antibody 3732. […]
molecule,measurement,setting,value
CC(C)CN(C[C@@H](O)[C@H](Cc1ccccc1)NC(=O)O[C@H]1CCOC1)S(=O)(=O)c1ccc(N)cc1 [Amprenavir],effect of a high-fat meal on absorption of the drug,[1]; high-fat meal,decrease the absorption
same,severe or life-threatening rash,[1]; of recipients,1%
same,severe or life-threatening rash,[1]; of those who develop a rash,4%
same,"severe and life-threatening skin reactions, including Stevens-Johnson syndrome",[1]; patients treated,1%
"CC(=O)N[C@@H](CC(C)C)C(=O)N[C@@H](CC(C)C)C(=O)N[C@H](C=O)CCCNC(=N)N [leupeptin, Acetyl-leucyl-leucyl-arginal]",activity in prevention of the breakdown of N-CAM 180 and subsequent release/accumulation of cN-CAM,"[2]; 10 μM final concentration, compared with the other protease inhibitors assayed individually",most activity; also recorded: most effective
same,inhibition of the increase in cN-CAM,"[2]; 10 μM, room temperature, over the course of 48 hr, FIG. 8B and C",completely inhibited
same,potency compared to the protease inhibitor cocktail,[2]; assayed in human brain,most potent
Aprotinin,tolerability in humans,[3]; clinical trials,generally well tolerated
same,hypersensitivity reactions,[3]; patients receiving aprotinin for the first time,<0.1 to 0.6%
neuraminidase: neuraminidase enzyme from Vibrio cholerae (Fluka),effect on N-CAM 180 in membrane extracts,[4],removal of higher MW N-CAM 180
